# Source: patent publication US5519007A, “Lysosphingolipid derivatives” (Fidia, S.p.A., priority 1988, dated 1996)
# Key:
# [1] = Neurotoxicity of the compounds themselves in culture in the absence of glutamate; assay type: cell-based, Sprague-Dawley rats; conditions: rat, cerebellar granule cells; 24 hours, absence of glutamate; read-out: Neurotoxicity in 24 hours (ED50)
# Experimental: (§1) The following experiments show studies carried out with N-dichloroacetylsphingosine, in comparison to sphingosine. In particular, their effects on PKC translocation and glutamate-induced neuronal toxicity in primary granule cell cultures were observed. Possible cytotoxic effects of the products were assessed according to their neurotoxic effects in cerebellar cells in culture, as well as hemolysis.
# (§2) Primary cultures were prepared with granule cells from 8-day-old Sprague-Dawley rats (Zivic Miller). These cultures have a granule cell content of >90%, 5% of GABAergic neurons [Gallo V. et al., Proc. Natl. Acad. Sci. USA 79, 7919-7923 (1982)] and <5% of glia cells [Vaccarino F. M. et al., J. Neurosci. 7, 65-76 (1987)]. The cultures were used for the experiments on the 8th and 9th days in vitro.
# (§3) On the 8th and 9th days in vitro, sphingosines and N-dichloroacetylsphingosines at various concentrations (1-100μM) were added to the cultures. In particular, monolayers of granule cells were pre-incubated with these compounds in Locke's solution (1 ml) for 2 hrs at 37° C. The sphingosine was dissolved in ethanol, stored as an equimolar complex with bovine serum albumin (BSA) with no fatty acids, and diluted directly with the Locke's solution used to preincubate the cells. The N-dichloroacetylsphingosine was dissolved in DMSO and diluted directly in Locke's solution (as noted above). Aliquots of the dilutions were dried in a flow of N2, after which Locke's solution was added until the desired concentration was reached.
# (§4) Possibile cytotoxicity of the compounds themselves was calculated by assessing the toxicity in the […] cultures in the absence of glutamate. The experiments and techniques used were those described above, with the difference that glutamate was omitted. The possible hemolytic effects of the compounds were also assessed. Samples of blood were taken from 4 volunteers. Each sample was subdivided into three test tubes as follows: […]
# [2] = system: cerebellar cells in culture; assay: as above; assay type: cell-based, Sprague-Dawley rats; conditions: compared with concentrations antagonizing PKC translocation and neuronal toxicity induced by glutamate
# Experimental: as §1, §2, §3, §4
# protein-kinase C (PKC) = assay: Glutamate-induced PKC translocation, [3H]-P(BtO)2 bond in intact primary cerebellar granule cells; assay type: cell-based, Sprague-Dawley rats; conditions: for IC50: 2 h pre-incubation at 37° C., 1 μM glutamate, absence of Mg2+, read-out: PKC inhibition (ED50), glutamate-induced PKC translocation
# Experimental: Translocation of PKC can be measured by assessment of the bond sites of 4-B-[3H]-phorbol 12,13-dibutyrate [3H]-P(Bt02) in intact cells.
# (§5) Primary cultures were prepared with granule cells from 8-day-old Sprague-Dawley rats (Zivic Miller). […] The cultures were used for the experiments on the 8th and 9th days in vitro.
# After 2 hours' incubation at 37° C. of the cells with or without the compounds (see above), the monolayers were washed once and the [^3 H]-P(BtO2) bond was assessed in the presence of 1 μM of glutamate and in the absence of Mg^2 +. […] Preliminary experiments have shown that balance is reached within 10 minutes, so the monolayers were incubated with [^3 H]-P(Bt0)2 for 15 minutes at 22° C. […] After incubation, the cells were washed three times with cold Locke's solution, and then suspended with 0.1M NaOH. Aliquots of the suspension were then used for protein determination (9) and liquid scintillation count. The nonspecific bond was determined in the presence of 2 μM phorbol 12-tetradecanoate 13-acetate (PTA).
# blood = assay: Hemolysis in blood of volunteers (cyanomethahemoglobin method); assay type: cell-based, human (volunteers); conditions: 45 minutes at 37° C., various concentrations, vs plasma negative control; FIGURE
# [3] = system: primary granule cell cultures; assay: Protection from glutamate-induced neuronal toxicity in primary granule cell cultures; assay type: cell-based, Sprague-Dawley rats
# Experimental: as §5
# Monolayers of intact granule cells were pre-incubated with various compounds at various concentrations for 2 hours at 37° C. […] Cell survival was assessed by histochemical techniques after 24 hours. In particular, cell viability was assessed after fluorescein staining, which gives green fluorescence to vital cells and red fluorescence to nonvital ones.
# [4] = system: glutamate high affinity recognition site; conditions: literature; cited from earlier work
# PKC [5] = conditions: granule cells; Vaccarino et al. 1987; cited from earlier work
# [3H]-P(Bt02) bond = literature; cited from earlier work
# granule cells = conditions: literature; cited from earlier work
# PKC [6] = conditions: literature (Hannun, Merril, Wilson); cited from earlier work
Molecule,CC50 at 24 h [1],Neurotoxicity of the compound itself (in words) [2],Inhibition of glutamate-induced PKC translocation (in words) (protein-kinase C (PKC)),IC50 (protein-kinase C (PKC)),Hemolysis (blood),Reduction of cell toxicity induced by glutamate (in words) ([3]; 50 μM glutamate),"EC50 ([3]; Rattus norvegicus, 2 h pre-incubation at 37° C., 50 μM glutamate 15 min without Mg2+, survival after 24 hours, read-out: Protection from glutamate (ED50), neuronal toxicity induced by glutamate)",Interference with the glutamate bond at its high affinity recognition site [4],Effect on glutamate-induced translocation and activation of PKC (PKC [5]),Interference with the [3H]-P(Bt02) bond ([3H]-P(Bt02) bond),Protection from glutamate-induced cell damage (granule cells),Effect on activity and translocation of PKC (PKC [6])
"CCCCCCCCCCCCC/C=C/[C@@H](O)[C@H](CO)NC(=O)C(Cl)Cl [N-dichloroacetylsphingosine, N-DICHLOROACETYL SPHINGOSINE]",> 100 µM,"either no toxicity at all, or toxicity at significantly higher concentrations than those able to antagonize translocation induced by glutamate (column 1) as well as the neuronal toxicity induced by glutamate",inhibited glutamate-induced PKC translocation,30 µM,does not cause hemolysis,significantly reducing cell toxicity induced by glutamate,30 µM,–,–,–,–,–
monosialosyl-N-tetra-glycosylceramide [GM1],–,–,–,–,–,–,–,do not interfere with the glutamate bond up to its high affinity recognition site,inhibits the translocation and activation of PKC induced by glutamate,do not interfere with the glutamate bond up to its high affinity recognition site or with the [3H]-P(Bt02) bond,offer protection from glutamate-induced cell damage,–
CCCCCCCCCCCCC/C=C/[C@@H](O)[C@@H](N)CO [Sphingosine],10 to 20 µM,–,–,20 µM,"contrary to sphingosine, does not cause hemolysis",–,–,–,–,–,–,inhibit the activity and translocation of PKC
trisialosyl-N-tetra-glycosylceramide [GT1b],–,–,–,–,–,–,–,do not interfere with the glutamate bond up to its high affinity recognition site,inhibits the translocation and activation of PKC induced by glutamate,do not interfere with the glutamate bond up to its high affinity recognition site or with the [3H]-P(Bt02) bond,offer protection from glutamate-induced cell damage,–
